Experimental data: patent US9090535B2, “Hydroxylated tricyclic compounds” (Nektar Therapeutics, priority 2010, dated 2015)
Counter-ions that a name gives are not always drawn. Like-named read-outs stand apart in the source and are kept apart here.

What was measured:
[1] = biological target: T1, human norepinephrine transporter (hNET) (Homo sapiens, UniProt P23975); assay: Binding affinity to human norepinephrine transporter (hNET), [3H]Nisoxetine displacement; settings: membranes from MDCK cells expressing hNET, [3H]Nisoxetine 2 nM, read-out: NET binding, Ki
T1 construct: expressed in transfected cells; host or cells: MDCK cells
Description: The binding affinities of certain compounds disclosed herein to the hNET were measured using competitive radioligand displacement assays in membranes prepared from MDCK cells that express the human norepinephrine transporter. Competition binding experiments were conducted by incubating hNET membranes with [^3H] Nisoxetine (2 nM), in the presence of increasing concentrations of test compounds. Incubations were carried out at 4° C. for 60 minutes in buffer containing 50 mM Tris HCl, 120 mM NaCl and 5 mM KCl (pH 7.4). The binding reaction was terminated by rapid filtration, membranes were washed and membrane-bound radioactivity was measured using a scintillation counter. Non-specific binding was measured in the presence of excess (10 μM) clomipramine as the unlabelled ligand and this value was subtracted from the total binding to yield the specific binding at each test compound concentration.
IC50 values were obtained from non-linear regression analysis of concentration-versus specific binding plots. Ki values were calculated from the IC50 values using the Cheng Prusoff correction and experimentally determined […] values for the radioligand under these assay conditions.

[2] = test system: sodium channels (sodium current INa) in rat dorsal root ganglion (DRG) cells; assay: Sodium channel assay, whole-cell patch clamp of sodium current in isolated DRG cells; format: cell-based
Source text: The effect of compounds disclosed herein on sodium channels may be evaluated in vitro to determine their blocking properties using the whole-cell patch clamp method in isolated cardiac (human atrial myocytes) and neuronal (rat dorsal root ganglion) cells. The example below refers to a sodium channel assay using neuronal cells.
Electrophysiologic patch clamp recordings of the sodium current in isolated rat dorsal root ganglion (DRG) cells were used to measure the sodium channel blocking properties of certain compounds disclosed herein. DRG cells were isolated according to the method of Blair and Bean (J Neurosci, 22: pp. 10277-10290, 2002) and plated on treated glass coverslips. For measuring the sodium current, cells were perfused with an external solution that consists of (in mmol/L): 115 TMA chloride, 10 NaCl, 5 CsCl, 1.8 CaCl2, 1.2 MgCl2, 10 HEPES, 11 dextrose, pH adjusted to 7.4 with TMA-OH. The chemical composition of the internal solution was (in mmol/L): 115 CsF, 20 CsCl, 10 NaF, 10 HEPES, 5 EGTA; pH adjusted to 7.2 with CsOH. Currents were measured using the whole-cell variant of the patch clamp method (Crumb & Clarkson, Biophysical Journal, 57(3): 589, 1990). An Axopatch 1-B amplifier (Axon Instruments, Foster City, Calif.) was used for whole-cell voltage clamping. Creation of voltage clamp pulses and data acquisition were controlled by a PC running pClamp software (version 9.2, Axon Instruments). INa was elicited by a 40 ms pulse to −20 mV from a holding potential of −65 mV. Pacing rates of 0.1 and 3 Hz were examined. […]. Four concentrations of each test compound were added to the cell in a cumulative manner starting with the lowest test concentration. Each cell served as its own control and data are presented as % reduction of current amplitude achieved in the presence of drug. A nonlinear curve fitting routine was utilized to fit a three-parameter Hill equation to the results using MicroCal Origin, version 6.0 software. The equation was: […]

[3] = biological target: T2, cloned human hERG channel (Homo sapiens, UniProt Q12809); assay: In vitro effect on hERG channels, whole-cell patch clamp in HEK cells; format: cell-based; settings: 37 °C, read-out: IhERG, 0.1 HZ, IC50
T2 construct: expressed in transfected cells; host or cells: HEK cells
Description: Electrophysiological measurements of hERG current were made in vitro to assess the hERG block produced by certain compounds disclosed herein. hERG currents were measured in HEK cells expressing the cloned human hERG channel using the whole-cell variant of the patch clamp method. Experiments were performed at 37±1° C. An Axopatch 1-B amplifier (Axon Instruments, Foster City, Calif.) was used for whole-cell voltage clamping. Creation of voltage clamp pulses and data acquisition was controlled by a PC running pClamp software (version 9.2, Axon Instruments). After rupture of the cell membrane (entering whole-cell mode), current kinetics and amplitudes were allowed to stabilize for 3-5 minutes as the cell was dialyzed with internal solution and paced at 0.1 Hz. Cells were depolarized to +10 mV for 500 ms from a holding potential of −75 mV and peak hERG current was measured as the maximum outward deflection of the tail current elicited upon return to −40 mV (pacing rate=0.1 Hz). Four concentrations of each test compound were added to the cell in a cumulative manner starting with the lowest test concentration. Each cell served as its own control and data are presented as % reduction of current amplitude achieved in the presence of drug.
A nonlinear curve fitting routine was utilized to fit a three-parameter Hill equation to the results using MicroCal Origin, version 6.0 software. The equation was: […]

T1 sequence (P23975 whole entry): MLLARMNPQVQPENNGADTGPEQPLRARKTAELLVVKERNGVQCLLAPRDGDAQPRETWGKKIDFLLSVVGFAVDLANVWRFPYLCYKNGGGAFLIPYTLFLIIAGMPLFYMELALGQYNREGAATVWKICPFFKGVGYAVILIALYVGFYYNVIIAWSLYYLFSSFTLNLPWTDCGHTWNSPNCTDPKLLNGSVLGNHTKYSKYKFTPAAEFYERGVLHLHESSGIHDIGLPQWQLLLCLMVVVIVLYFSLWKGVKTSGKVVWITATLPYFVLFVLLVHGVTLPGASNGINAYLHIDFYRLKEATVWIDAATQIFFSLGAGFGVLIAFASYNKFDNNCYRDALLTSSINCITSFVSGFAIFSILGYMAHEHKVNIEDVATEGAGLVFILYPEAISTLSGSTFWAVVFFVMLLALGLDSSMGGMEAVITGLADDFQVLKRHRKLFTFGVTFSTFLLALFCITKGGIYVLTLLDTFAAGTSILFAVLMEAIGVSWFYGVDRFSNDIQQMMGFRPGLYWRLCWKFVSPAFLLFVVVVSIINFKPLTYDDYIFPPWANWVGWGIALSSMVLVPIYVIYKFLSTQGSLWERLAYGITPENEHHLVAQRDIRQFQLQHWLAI
T2 sequence (Q12809 whole entry): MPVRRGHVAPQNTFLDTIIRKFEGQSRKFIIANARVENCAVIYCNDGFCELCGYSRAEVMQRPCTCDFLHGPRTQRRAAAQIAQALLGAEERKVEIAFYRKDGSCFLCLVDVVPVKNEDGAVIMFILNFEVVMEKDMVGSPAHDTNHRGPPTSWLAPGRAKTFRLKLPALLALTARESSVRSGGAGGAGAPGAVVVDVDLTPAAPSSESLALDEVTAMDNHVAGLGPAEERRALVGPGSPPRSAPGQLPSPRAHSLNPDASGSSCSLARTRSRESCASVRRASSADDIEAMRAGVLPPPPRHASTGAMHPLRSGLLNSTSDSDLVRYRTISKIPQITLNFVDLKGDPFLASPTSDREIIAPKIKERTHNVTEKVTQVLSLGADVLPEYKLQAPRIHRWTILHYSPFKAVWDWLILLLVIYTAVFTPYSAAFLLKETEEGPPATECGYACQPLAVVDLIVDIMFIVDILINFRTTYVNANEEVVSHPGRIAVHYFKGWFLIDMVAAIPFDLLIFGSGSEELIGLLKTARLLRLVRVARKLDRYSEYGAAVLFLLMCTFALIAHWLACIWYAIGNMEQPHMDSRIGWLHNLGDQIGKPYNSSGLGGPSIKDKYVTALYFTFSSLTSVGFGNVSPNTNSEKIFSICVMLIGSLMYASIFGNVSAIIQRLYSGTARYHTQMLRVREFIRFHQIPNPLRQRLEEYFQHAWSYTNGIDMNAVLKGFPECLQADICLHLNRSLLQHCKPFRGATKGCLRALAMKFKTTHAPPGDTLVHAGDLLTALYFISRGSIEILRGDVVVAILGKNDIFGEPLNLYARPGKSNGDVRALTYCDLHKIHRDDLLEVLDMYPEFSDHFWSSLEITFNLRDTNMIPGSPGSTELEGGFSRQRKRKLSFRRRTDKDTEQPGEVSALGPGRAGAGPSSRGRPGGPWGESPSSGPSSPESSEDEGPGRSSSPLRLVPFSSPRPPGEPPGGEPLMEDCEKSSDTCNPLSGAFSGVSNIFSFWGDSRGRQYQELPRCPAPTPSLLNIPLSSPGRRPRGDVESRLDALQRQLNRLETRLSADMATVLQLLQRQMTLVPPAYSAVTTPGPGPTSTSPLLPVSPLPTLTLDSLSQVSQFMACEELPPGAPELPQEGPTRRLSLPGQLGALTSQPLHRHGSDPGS

Compound | Ki ([1]; Table 2) | IC50 ([2]; Table 2, pacing rate 3 Hz) | IC50 ([3]; Table 2, pacing rate 0.1 Hz) | Ki ([1]; Table 3) | IC50 ([3]; Table 3, pacing rate 0.1 Hz) | further results
COCCOCCOCCOCCOCCOCCO[C@@H]1Cc2ccccc2/C(=C\CCN(C)C)c2ccccc21 [(R)-5-(3-dimethylamino-propylidene)-10-OmPEG6-10,11-dihydro-5H-dibenzo[a,d]cyclohept-E-ene trifluoroacetate salt] | 60.4 µM | 8.1 µM | 37.9 µM | – | – | –
CN(C)CCC=C1c2ccccc2CCc2ccccc21 [Amitriptyline, reference compound] | – | 7.1 µM | – | – | – | IC50 ([2]; Table 1, pacing rate 3 Hz): 7.1 µM
5-(3-Dimethylamino-propylidene)-10,11-dihydro-5H-dibenzo[a,d]cyclohept-Z-en-2-OmPEG6 hydrochloride salt | – | – | – | – | – | Ki ([1]; Table 1): 37.7 µM; IC50 ([2]; Table 1, pacing rate 3 Hz): 12.4 µM; IC50 ([3]; Table 1, pacing rate 0.1 Hz): 8.1 µM
COCCOCCOCCOCCO[C@H]1Cc2ccccc2/C(=C/CCN(C)C)c2ccccc21 [(S)-5-(3-dimethylamino-propylidene)-10-OmPEG4-10,11-dihydro-5H-dibenzo[a,d]cyclohept-Z-ene trifluoroacetate salt] | – | – | – | 27.4 µM | 11.5 µM | –
COCCOCCOCCOCCOCCOCCO[C@@H]1Cc2ccccc2/C(=C/CCN(C)C)c2ccccc21 [(R)-5-(3-dimethylamino-propylidene)-10-OmPEG6-10,11-dihydro-5H-dibenzo[a,d]cyclohept-Z-ene trifluoroacetate salt] | – | – | – | 31.3 µM | 18.9 µM | –
COCCOCCOCCOCCOCCOCCO[C@H]1Cc2ccccc2/C(=C\CCN(C)C)c2ccccc21 [(S)-5-(3-dimethylamino-propylidene)-10-OmPEG6-10,11-dihydro-5H-dibenzo[a,d]cyclohept-E-ene trifluoroacetate salt] | 14.2 µM | 8.5 µM | 36 µM | – | – | –
CN(C)CC/C=C1\c2ccccc2CCc2cc(O)ccc21 [(E)-5-(3-(dimethylamino)propylidene)-10,11-dihydro-5H-dibenzo[a,d][7]annulen-2-ol, reference compound] | – | – | – | – | – | Ki ([1]; Table 1): 0.16 µM
COCCOCCOCCOCCOc1ccc2c(c1)CCc1ccccc1/C2=C/CCN(C)C [5-(3-Dimethylamino-propylidene)-10,11-dihydro-5H-dibenzo[a,d]cyclohept-Z-en-2-OmPEG4 hydrochloride salt] | – | – | – | – | – | Ki ([1]; Table 1): 21.2 µM; IC50 ([2]; Table 1, pacing rate 3 Hz): 12.8 µM; IC50 ([3]; Table 1, pacing rate 0.1 Hz): 24.9 µM
COCCOCCOCCOCCOCCOCCOCCOCCOc1ccc2c(c1)CCc1ccccc1/C2=C/CCN(C)C [5-(3-Dimethylamino-propylidene)-10,11-dihydro-5H-dibenzo[a,d]cyclohept-Z-en-2-OmPEG8 hydrochloride salt] | – | – | – | – | – | Ki ([1]; Table 1): 646 µM; IC50 ([2]; Table 1, pacing rate 3 Hz): 16.9 µM; IC50 ([3]; Table 1, pacing rate 0.1 Hz): 26.4 µM
COCCOCCOCCOCCOCCOCCO[C@H]1Cc2ccccc2/C(=C/CCN(C)C)c2ccccc21 [(S)-5-(3-dimethylamino-propylidene)-10-OmPEG6-10,11-dihydro-5H-dibenzo[a,d]cyclohept-Z-ene trifluoroacetate salt] | – | – | – | 22.1 µM | 38.3 µM | –
COCCOCCOCCOCCO[C@@H]1Cc2ccccc2/C(=C/CCN(C)C)c2ccccc21 [(R)-5-(3-dimethylamino-propylidene)-10-OmPEG4-10,11-dihydro-5H-dibenzo[a,d]cyclohept-Z-ene trifluoroacetate salt] | – | – | – | 30.6 µM | 21.5 µM | –
CN(C)CC/C=C1/c2ccccc2C[C@H](O)c2ccccc21 [(S)-5-(3-Dimethylamino-propylidene)-10,11-dihydro-5H-dibenzo[a,d]cyclohept-Z-en-10-ol, reference compound] | – | – | – | 0.97 µM | 7.2 µM | –
COCCOCCOCCOCCOCCOCCOCCOCCO[C@H]1Cc2ccccc2/C(=C\CCN(C)C)c2ccccc21 [(S)-5-(3-dimethylamino-propylidene)-10-OmPEG8-10,11-dihydro-5H-dibenzo[a,d]cyclohept-E-ene trifluoroacetate salt] | 14 µM | 71.6 µM | > 100 µM | – | – | –
CN(C)CC/C=C1\c2ccccc2C[C@H](O)c2ccccc21 [(S)-5-(3-Dimethylamino-propylidene)-10,11-dihydro-5H-dibenzo[a,d]cyclohept-E-en-10-ol, reference compound] | 0.34 µM | 16.6 µM | 23.2 µM | – | – | –
5-(3-Dimethylamino-propylidene)-10,11-dihydro-5H-dibenzo[a,d]cyclohept-E-en-2-OmPEG6 hydrochloride salt | – | – | – | – | – | Ki ([1]; Table 1): 35.5 µM; IC50 ([2]; Table 1, pacing rate 3 Hz): 16.3 µM; IC50 ([3]; Table 1, pacing rate 0.1 Hz): 61.5 µM
COCCOCCOCCOCCO[C@H]1Cc2ccccc2/C(=C\CCN(C)C)c2ccccc21 [(S)-5-(3-dimethylamino-propylidene)-10-OmPEG4-10,11-dihydro-5H-dibenzo[a,d]cyclohept-E-ene trifluoroacetate salt] | 12.6 µM | 39.4 µM | 24.8 µM | – | – | –
CN(C)CC/C=C1\c2ccccc2C[C@@H](O)c2ccccc21 [(R)-5-(3-dimethylamino-propylidene)-10,11-dihydro-5H-dibenzo[a,d]cyclohept-E-en-10-ol, reference compound] | 2.53 µM | 6.2 µM | 18 µM | – | – | –
COCCOCCOCCOCCOCCOCCOCCOCCOc1ccc2c(c1)CCc1ccccc1/C2=C\CCN(C)C [5-(3-Dimethylamino-propylidene)-10,11-dihydro-5H-dibenzo[a,d]cyclohept-E-en-2-OmPEG8 hydrochloride salt] | – | – | – | – | – | Ki ([1]; Table 1): 62.9 µM; IC50 ([2]; Table 1, pacing rate 3 Hz): 23.4 µM; IC50 ([3]; Table 1, pacing rate 0.1 Hz): 2.2 µM
COCCOCCO[C@@H]1Cc2ccccc2/C(=C\CCN(C)C)c2ccccc21 [(R)-5-(3-dimethylamino-propylidene)-10-OmPEG2-10,11-dihydro-5H-dibenzo[a,d]cyclohept-E-ene trifluoroacetate salt] | 49.1 µM | – | 14 µM | – | – | –
COCCO[C@@H]1Cc2ccccc2/C(=C\CCN(C)C)c2ccccc21 [(R)-5-(3-dimethylamino-propylidene)-10-OmPEG1-10,11-dihydro-5H-dibenzo[a,d]cyclohept-E-ene trifluoroacetate salt] | 4.45 µM | – | 12.1 µM | – | – | –
CN(C)CC/C=C1/c2ccccc2C[C@@H](O)c2ccccc21 [(R)-5-(3-dimethylamino-propylidene)-10,11-dihydro-5H-dibenzo[a,d]cyclohept-Z-en-10-ol, reference compound] | – | – | – | 6.28 µM | 4.1 µM | –
COCCOCCOCCOCCOCCOCCOCCOCCO[C@@H]1Cc2ccccc2/C(=C/CCN(C)C)c2ccccc21 [(R)-5-(3-dimethylamino-propylidene)-10-OmPEG8-10,11-dihydro-5H-dibenzo[a,d]cyclohept-Z-ene trifluoroacetate salt] | – | – | – | 4.37 µM | > 100 µM | –
COCCOCCOCCOCCOCCOCCOCCOCCO[C@H]1Cc2ccccc2/C(=C/CCN(C)C)c2ccccc21 [(S)-5-(3-dimethylamino-propylidene)-10-OmPEG8-10,11-dihydro-5H-dibenzo[a,d]cyclohept-Z-ene trifluoroacetate salt] | – | – | – | 2.99 µM | 32.8 µM | –
